Experimental data: patent publication US20030162803A1, “Anhydrovinblastine for the treatment of cancer” (priority 1997, published 2003)
Entries after “also recorded” stand apart in the source; their conditions may differ.

Tests used:
[1] = Phase I clinical trial, toxicity and MTD; assay type: in vivo, human patients
Method: Patients had normal bone marrow, hepatic and renal function. Twenty-four patients were treated with escalating doses of AHVB, administered as a 1 hour infusion every 3 weeks. The 24 patients comprised 12 male and 12 female patients with a median age of 60 years (range 27-75 years). Twenty-one of the 24 patients were evaluable. Diagnoses were non-small cell lung cancer (NSCLC), colorectal cancer, soft tissue sarcoma, pancreatic cancer, breast cancer and metastatic neuroendocrine cancer in 11, 5, 4, 1, 1, and 1 patient(s), respectively. […] A total of 51 courses were administered at doses of 2.5, 5, 10,16.5, 21,25 and 30 mg/m^2 to 1,3, 1,3, 6, 6 and 1 patient(s), respectively (see Table 4).
The first patient was entered in the trial at the 2.5 mg/m^2 dose level. […] Five patients were enrolled at the 16.5 mg/m^2 dose level because two patients were not evaluable and had to be replaced. […] Six patients were enrolled at the 25 mg/m^2 dose level. […] This dose level, therefore, exceeded the MTD.
Seven patients were enrolled at the 21 mg/m^2 dose level, but only 6 were evaluable for toxicity due to one patient developing Grade 2 hypertension, headache, nausea and vomiting at the start of the infusion, which recurred on rechallenge. This patient received only 15 ml of the drug solution and, therefore, was not evaluable to assess toxicity. […] The nausea and vomiting observed at the 21 mg/m^2 dose level was a DLT. It was determined that the 21 mg/m^2 dose is the MTD.

[2] = Phase I clinical trial, pharmacokinetics (serum, HPLC, 2-compartment model); assay type: in vivo, human patients; design: AUC: unit not given here
Method: AHVB blood serum concentrations were measured at 0, 0.33, 0.67, 1, 1.25, 1.5, 2, 4, 6, 8, 12, 24, 48, and 72 hrs after the start of each infusion. […] The serum extracts were assayed using high pressure liquid chromatography (HPLC) and were fit to a 2-compartment pharmacokinetic model for determination of pharmacokinetic parameters (see Table 5).
There appears to be no significant change in clearance observed between smaller and larger doses (p>0.2 by linear regression). […] Similarly, AUC appeared to increase linearly with dose (r^2=0.82, p<0.05) (FIG. 12).

Structure (SMILES): CCC1=C[C@H]2CN(CCc3c([nH]c4ccccc34)[C@@](C(=O)OC)(c3cc4c(cc3OC)N(C)[C@H]3[C@@](O)(C(=O)OC)[C@H](OC(C)=O)[C@]5(CC)C=CCN6CC[C@]43[C@@H]65)C2)C1 [AHVB, 3′,4′-anhydrovinblastine]
- toxicities ([1]; 5 mg/m^2, 1 hour IV infusion every 3 weeks): Grade 2 anorexia, hyperamylasemia, and increased serum creatinine; also recorded: One patient treated developed Grade 2 elevated amylase,; also recorded: elevated creatine and anorexia requiring an additional 2
- toxicities ([1]; 10 mg/m^2, 1 hour IV infusion every 3 weeks): One patient treated with minimal toxicity
- toxicities ([1]; 16.5 mg/m^2, 1 hour IV infusion every 3 weeks): Grade 2 toxicities including infusional hypertension, anemia and dizziness; also recorded: replaced. The next patient showed Grade 2 toxicities; also recorded: two patients had minimal toxicities
- toxicities ([1]; 21 mg/m^2, 1 hour IV infusion every 3 weeks): Grade 3 nausea and vomiting and Grade 2 constipation; also recorded: patient exhibited Grade 3 nausea and vomiting. This does
- toxicities ([1]; 25 mg/m^2, 1 hour IV infusion every 3 weeks): DLTs including Grade 4 level constipation and Grade 3 nausea and vomiting; also recorded: grade 4 constipation, Grade 3 tumor pain, nausea, vomiting,; also recorded: anemia and Grade 4 neutropenia (1 patient)
- toxicities ([1]; 30 mg/m^2, 1 hour IV infusion every 3 weeks): One patient treated developed Grade 3 leukopenia.
- MTD (maximum-tolerated dose) ([1]; 1 hour IV infusion every 3 weeks, patients): 21 mg/m^2
- pharmacokinetics, dose linearity ([2]; 2.5-30 mg/m^2, 1 hour infusion): linear
- T1/2 al ([2]; All Data, N 20, Max): 0.393 h
- T1/2 be ([2]; All Data, N 20, Max): 63.10 h
- T1/2 al (alpha half-life) ([2]; All Data, N 20, Mean): 0.19 h
- T1/2 be (beta half-life) ([2]; All Data, N 20, Mean): 20.8 h
- T1/2 al ([2]; All Data, N 20, Median): 0.17 h
- T1/2 be ([2]; All Data, N 20, Median): 17.60 h
- T1/2 al ([2]; All Data, N 20, Min): 0.07 h
- T1/2 be ([2]; All Data, N 20, Min): 6.63 h
- A ([2]; dose 2.5 mg/m^2, N 1, Value): 134.71 ng/mL
- AUC ([2]; dose 2.5 mg/m^2, N 1, Value): 71.64
- B ([2]; dose 2.5 mg/m^2, N 1, Value): 5.03 ng/mL
- Cmax ([2]; dose 2.5 mg/m^2, N 1, Value): 28.23 ng/mL
- T1/2 al ([2]; dose 2.5 mg/m^2, N 1, Value): 0.12 h
- T1/2 be ([2]; dose 2.5 mg/m^2, N 1, Value): 6.63 h
- A ([2]; dose 5 mg/m^2, N 3, Max): 531.52 ng/mL
- AUC ([2]; dose 5 mg/m^2, N 3, Max): 793.39
- B ([2]; dose 5 mg/m^2, N 3, Max): 9.73 ng/mL
- Cmax ([2]; dose 5 mg/m^2, N 3, Max): 62.40 ng/mL
- T1/2 al ([2]; dose 5 mg/m^2, N 3, Max): 0.17 h
- T1/2 be ([2]; dose 5 mg/m^2, N 3, Max): 63.13 h
- A ([2]; dose 5 mg/m^2, N 3, Mean): 281.82 ng/mL
- AUC ([2]; dose 5 mg/m^2, N 3, Mean): 571.75
- B ([2]; dose 5 mg/m^2, N 3, Mean): 8.04 ng/mL
- Cmax ([2]; dose 5 mg/m^2, N 3, Mean): 51.37 ng/mL
- T1/2 al ([2]; dose 5 mg/m^2, N 3, Mean): 0.14 h
- T1/2 be ([2]; dose 5 mg/m^2, N 3, Mean): 44.36 h
- A ([2]; dose 5 mg/m^2, N 3, Median): 178.39 ng/mL
- AUC ([2]; dose 5 mg/m^2, N 3, Median): 639.67
- B ([2]; dose 5 mg/m^2, N 3, Median): 8.11 ng/mL
- Cmax ([2]; dose 5 mg/m^2, N 3, Median): 53.07 ng/mL
- T1/2 al ([2]; dose 5 mg/m^2, N 3, Median): 0.17 h
- T1/2 be ([2]; dose 5 mg/m^2, N 3, Median): 42.41 h
- A ([2]; dose 5 mg/m^2, N 3, Min): 135.55 ng/mL
- AUC ([2]; dose 5 mg/m^2, N 3, Min): 282.20
- B ([2]; dose 5 mg/m^2, N 3, Min): 6.27 ng/mL
- Cmax ([2]; dose 5 mg/m^2, N 3, Min): 38.65 ng/mL
- T1/2 al ([2]; dose 5 mg/m^2, N 3, Min): 0.07 h
- T1/2 be ([2]; dose 5 mg/m^2, N 3, Min): 27.54 h
- A ([2]; dose 10 mg/m^2, N 1, Value): 109.85 ng/mL
- AUC ([2]; dose 10 mg/m^2, N 1, Value): 247.19
- B ([2]; dose 10 mg/m^2, N 1, Value): 11.49 ng/mL
- Cmax ([2]; dose 10 mg/m^2, N 1, Value): 48.57 ng/mL
- T1/2 al ([2]; dose 10 mg/m^2, N 1, Value): 0.25 h
- T1/2 be ([2]; dose 10 mg/m^2, N 1, Value): 12.50 h
- A ([2]; dose 16.5 mg/m^2, N 5, Max): 816.42 ng/mL
- AUC ([2]; dose 16.5 mg/m^2, N 5, Max): 1791.22
- B ([2]; dose 16.5 mg/m^2, N 5, Max): 34.16 ng/mL
- Cmax ([2]; dose 16.5 mg/m^2, N 5, Max): 231.52 ng/mL
- T1/2 al ([2]; dose 16.5 mg/m^2, N 5, Max): 0.39 h
- T1/2 be ([2]; dose 16.5 mg/m^2, N 5, Max): 33.52 h
- A ([2]; dose 16.5 mg/m^2, N 5, Mean): 509.47 ng/mL
- AUC ([2]; dose 16.5 mg/m^2, N 5, Mean): 824.58
- B ([2]; dose 16.5 mg/m^2, N 5, Mean): 22.50 ng/mL
- Cmax ([2]; dose 16.5 mg/m^2, N 5, Mean): 163.03 ng/mL
- T1/2 al ([2]; dose 16.5 mg/m^2, N 5, Mean): 0.22 h
- T1/2 be ([2]; dose 16.5 mg/m^2, N 5, Mean): 21.35 h
- A ([2]; dose 16.5 mg/m^2, N 5, Median): 478.82 ng/mL
- AUC ([2]; dose 16.5 mg/m^2, N 5, Median): 541.21
- B ([2]; dose 16.5 mg/m^2, N 5, Median): 21.87 ng/mL
- Cmax ([2]; dose 16.5 mg/m^2, N 5, Median): 171.48 ng/mL
- T1/2 al ([2]; dose 16.5 mg/m^2, N 5, Median): 0.20 h
- T1/2 be ([2]; dose 16.5 mg/m^2, N 5, Median): 21.82 h
- A ([2]; dose 16.5 mg/m^2, N 5, Min): 263.49 ng/mL
- AUC ([2]; dose 16.5 mg/m^2, N 5, Min): 511.26
- B ([2]; dose 16.5 mg/m^2, N 5, Min): 6.64 ng/mL
- Cmax ([2]; dose 16.5 mg/m^2, N 5, Min): 96.35 ng/mL
- T1/2 al ([2]; dose 16.5 mg/m^2, N 5, Min): 0.13 h
- T1/2 be ([2]; dose 16.5 mg/m^2, N 5, Min): 8.21 h
- A ([2]; dose 21 mg/m^2, N 3, Max): 1197.78 ng/mL
- AUC ([2]; dose 21 mg/m^2, N 3, Max): 1402.11
- B ([2]; dose 21 mg/m^2, N 3, Max): 28.54 ng/mL
- Cmax ([2]; dose 21 mg/m^2, N 3, Max): 340.46 ng/mL
- T1/2 al ([2]; dose 21 mg/m^2, N 3, Max): 0.39 h
- T1/2 be ([2]; dose 21 mg/m^2, N 3, Max): 30.50 h
- A ([2]; dose 21 mg/m^2, N 3, Mean): 774.37 ng/mL
- AUC ([2]; dose 21 mg/m^2, N 3, Mean): 1094.91
- B ([2]; dose 21 mg/m^2, N 3, Mean): 25.92 ng/mL
- Cmax ([2]; dose 21 mg/m^2, N 3, Mean): 257.21 ng/mL
- T1/2 al ([2]; dose 21 mg/m^2, N 3, Mean): 0.26 h
- T1/2 be ([2]; dose 21 mg/m^2, N 3, Mean): 22.88 h
- A ([2]; dose 21 mg/m^2, N 3, Median): 802.43 ng/mL
- AUC ([2]; dose 21 mg/m^2, N 3, Median): 964.03
- B ([2]; dose 21 mg/m^2, N 3, Median): 24.72 ng/mL
- Cmax ([2]; dose 21 mg/m^2, N 3, Median): 252.10 ng/mL
- T1/2 al ([2]; dose 21 mg/m^2, N 3, Median): 0.20 h
- T1/2 be ([2]; dose 21 mg/m^2, N 3, Median): 19.15 h
- A ([2]; dose 21 mg/m^2, N 3, Min): 322.90 ng/mL
- AUC ([2]; dose 21 mg/m^2, N 3, Min): 918.58
- B ([2]; dose 21 mg/m^2, N 3, Min): 24.50 ng/mL
- Cmax ([2]; dose 21 mg/m^2, N 3, Min): 179.07 ng/mL
- T1/2 al ([2]; dose 21 mg/m^2, N 3, Min): 0.19 h
- T1/2 be ([2]; dose 21 mg/m^2, N 3, Min): 19.00 h
- A ([2]; dose 25 mg/m^2, N 6, Max): 1952.78 ng/mL
- AUC ([2]; dose 25 mg/m^2, N 6, Max): 1202.01
- B ([2]; dose 25 mg/m^2, N 6, Max): 48.76 ng/mL
- Cmax ([2]; dose 25 mg/m^2, N 6, Max): 368.79 ng/mL
- T1/2 al ([2]; dose 25 mg/m^2, N 6, Max): 0.36 h
- T1/2 be ([2]; dose 25 mg/m^2, N 6, Max): 16.29 h
- A ([2]; dose 25 mg/m^2, N 6, Mean): 1122.91 ng/mL
- AUC ([2]; dose 25 mg/m^2, N 6, Mean): 764.83
- B ([2]; dose 25 mg/m^2, N 6, Mean): 34.51 ng/mL
- Cmax ([2]; dose 25 mg/m^2, N 6, Mean): 273.43 ng/mL
- T1/2 al ([2]; dose 25 mg/m^2, N 6, Mean): 0.18 h
- T1/2 be ([2]; dose 25 mg/m^2, N 6, Mean): 10.68 h
- A ([2]; dose 25 mg/m^2, N 6, Median): 1062.6 ng/mL
- AUC ([2]; dose 25 mg/m^2, N 6, Median): 750.85
- B ([2]; dose 25 mg/m^2, N 6, Median): 35.06 ng/mL
- Cmax ([2]; dose 25 mg/m^2, N 6, Median): 287.71 ng/mL
- T1/2 al ([2]; dose 25 mg/m^2, N 6, Median): 0.16 h
- T1/2 be ([2]; dose 25 mg/m^2, N 6, Median): 10.54 h
- A ([2]; dose 25 mg/m^2, N 6, Min): 379.79 ng/mL
- AUC ([2]; dose 25 mg/m^2, N 6, Min): 436.85
- B ([2]; dose 25 mg/m^2, N 6, Min): 20.78 ng/mL
- Cmax ([2]; dose 25 mg/m^2, N 6, Min): 108.52 ng/mL
- T1/2 al ([2]; dose 25 mg/m^2, N 6, Min): 0.11 h
- T1/2 be ([2]; dose 25 mg/m^2, N 6, Min): 6.73 h
- A ([2]; dose 30 mg/m^2, N 1, Value): 3559.02 ng/mL
- AUC ([2]; dose 30 mg/m^2, N 1, Value): 1797.92
- B ([2]; dose 30 mg/m^2, N 1, Value): 36.71 ng/mL
- Cmax ([2]; dose 30 mg/m^2, N 1, Value): 571.08 ng/mL
- T1/2 al ([2]; dose 30 mg/m^2, N 1, Value): 0.10 h
- T1/2 be ([2]; dose 30 mg/m^2, N 1, Value): 23.83 h
